# Measured values reported in a melting point compilation (Tetko et al.; mined from patent text by program, amines drawn as free bases though some values may be those of a salt).
row,SMILES,melting point [°C]
1,COc1ccc(N(CCC(O)CO)S(=O)(=O)c2c(F)c(F)c(F)c(F)c2F)cc1 (stereo unspecified),126 to 128
2,O=C1NCCC1=Cc1ccc(C2=NCCO2)cc1,258 to 262
3,O=C1CCCC12CCOc1ccc(F)cc12 (stereo unspecified),49 to 51
4,CCc1nc2c(N)nc3cc(OCCNC(=O)NC(C)C)ccc3c2n1CC1CCOCC1,223 to 225
5,CCOC(=O)c1cc(S(N)(=O)=O)c(Cl)cc1NCc1ccco1,163 to 165
6,CC(C)(Cc1cccc(Oc2cccc(CC(C)(C)C(=O)O)c2)c1)C(=O)O,84 to 85
7,N#Cc1ccccc1-c1ccc(CCl)cn1,97 to 98
8,O=C(CNC(=O)OCc1ccccc1)Nc1ccccc1C(=O)c1cccs1,115 to 116
9,COc1nc(C)nc(NC(=O)NS(=O)(=O)c2cc(Br)cc3c2OS(=O)(=O)C(C)=C3)n1,196 to 198
10,CN1CCN(CCCNc2ncc3c(n2)-c2ccccc2C(c2ccc(N)cc2)C3)CC1 (stereo unspecified),75 to 77
11,CCCc1nn(C)c2c(=O)[nH]cnc12,199 to 200
12,COc1ccccc1CN[C@H]1CCCN(CCCCCc2ccccc2)[C@H]1c1ccccc1 (relative stereo),109
13,O=c1ccc(-c2ccccc2F)n[nH]1,173 to 175
14,CCC(Oc1cc(Cl)cc(Cl)c1)C(=O)NC(C)(C)C#CCOC (stereo unspecified),103 to 104
15,Cc1cc(-c2ccc(C(=O)N3CCN(S(=O)(=O)c4ccc5cc(Br)ccc5c4)CC3)cc2)ccn1,204 to 205
16,COc1cc(OCc2cccnc2)ccc1/C=C/c1cc(/C=C/c2c[nH]c3ccccc23)n[nH]1,129 to 137
17,Cc1nnc2n1-c1ccc(C#Cc3cccs3)cc1C(c1ccccc1Cl)=NC2,160 to 163
18,CCOC(=O)c1csc2cc(O)ccc12,128 to 129
19,CCCOc1ccccc1-c1nc2nc(NCCOC)ncc2c(=O)[nH]1,193 to 194
20,CC(O)CCc1ccc2c(c1)Cc1ccccc1-2 (stereo unspecified),120 to 121
21,C=Cc1ccc(C(=O)Oc2ccc(S(=O)(=O)Nc3ccccc3)cc2)cc1,59 to 60
22,CCC1C2C3Cc4ccc(OC)c5c4C2(CCN3C)C(O5)C(O)C1(C)C (stereo unspecified),104 to 108
23,CCCCCC(C#CC1C(O)CC(=O)C1CCCCCCC(=O)OC)OC1CCCCO1 (mixture of isomers),84 to 85

row,SMILES,melting point [°C]
1,OCc1ccc(-c2cncc(OC3SCC(O)C(O)C3O)c2)cc1 (stereo unspecified),153
2,CN1CCN(c2nc(-c3ccccc3)c3ccccc3n2)CC1,101 to 122
3,CCCN(C(=O)OC(C)(C)C)C(CC(C)C)C(=O)NCC(=O)Oc1c(Cl)c(Cl)c(Cl)c(Cl)c1Cl (stereo unspecified),151 to 153
4,OCc1ccc2c(c1)C1(c3ccccc3-2)c2ccccc2-c2ccc(CO)cc21,254 to 255
5,CCN(CC)C(=O)n1nc(NC)n(C)c1=O,83 to 85
6,CC(=O)C(=NNc1ccccc1)C(=O)N(C)C,131 to 133
7,CCc1noc(C)c1-c1[nH]c2ccccc2c1C(O)CN(C)C (stereo unspecified),178 to 180
8,CC(=O)C1CCC2C3CCC4CC(OC(=O)OCC(Cl)(Cl)Cl)CCC4(C)C3C(NC(=O)OCC(Cl)(Cl)Cl)CC12C (stereo unspecified),174 to 176
9,COC(=O)c1ncsc1S,100
10,Cc1ccc(CC(O)(P(=O)(O)O)P(=O)(O)O)cc1,211 to 213
11,O=C1COc2ccccc2O1,45 to 53
12,Cc1noc(CC(=O)O)n1,95
13,CCOC(=O)C1=C(COCc2ccc(CN3CCOCC3)o2)NC(C)=C(C(=O)OC)C1c1ccccc1Cl (stereo unspecified),85 to 87
14,OCCn1cc(C(CC2CCCCCC2)=NO)c2c(Cl)cccc21,120 to 123
15,COc1ccc(-c2c[nH]c3cc(OC)c(OC)cc3c2=O)cc1,310 to 311
16,COc1ccc(Oc2ccc(OC(=O)N3CCC(C)CC3)cc2)cc1,81 to 84
17,CCOC(=O)CNC(=O)Oc1c(C)n(CCOC)ccc1=O,134 to 135
18,CC(C)CN1C2=NCCN2C(=O)C(N=O)=C1N,203 to 205
19,CCSc1nccc(C)c1N,37 to 38
20,COc1cc(OC)c(-c2cc3ccccc3[nH]2)cc1C=CC(=O)c1ccc(S(N)(=O)=O)cc1,185 to 187
21,CC(=O)C1CCC2C3CCC4CC(O)C(N5CCOC(C)(C)C5)CC4(C)C3CCC12C (stereo unspecified),174 to 176
22,O=Cc1c[nH]c2c1ccc1c2[nH]c2cc(Cl)cc(Cl)c21,> 250
23,CCN(CC)CCN(C)CCC1CCCCN1C(=O)N1c2ccccc2NC(=O)c2csc(C)c21 (stereo unspecified),131 to 133

row,SMILES,melting point [°C]
1,O=C1C(c2c[nH]c3ncccc23)=C(c2cn(S(=O)(=O)c3ccccc3)c3ccccc23)C(=O)N1COCc1ccccc1,94 to 96
2,Cc1cc2c(cn1)c(C#N)c(-c1ncc(S(=O)(=O)NC(C)C)cn1)n2C1CCC1,242 to 243
3,CCCc1nc2cnc3cc(OCC(=O)N4CCOCC4)ccc3c2s1,133 to 136
4,COC1C(O)C(COC(c2ccccc2)(c2ccccc2)c2ccccc2)OC(Oc2ccc([N+](=O)[O-])cc2)C1O (stereo unspecified),104
5,COCC1CN(c2c(F)cc3c(=O)c(C(=O)O)cn([C@@H]4C[C@@H]4F)c3c2OC)CCN1 (stereo partly specified),92 to 95
6,COc1ccc(S(=O)(=O)C2(C(=O)O)CCN(Cc3ccc(-c4ccccc4)cc3)CC2)cc1,168
7,Nc1nc2cccnc2c2c1nc(O)n2Cc1ccccc1,> 250
8,Cc1nc2c(N)nc(-c3ccncc3)nc2[nH]1,> 310
9,CCOC(=O)[C@H](CCc1ccccc1)N[C@@H](Cc1ccccc1)C(=O)NCCc1scnc1C(=O)O,121 to 124
10,COCCOC(=O)CCc1cc(C(C)(C)C)c(O)c(C(C)(C)C)c1,62 to 64
11,Cc1ccc(C(=O)Nc2nc(C(Cl)(Cl)Cl)ns2)cc1,127
12,Cc1ccccc1NC(=O)c1cc(Br)c(OCc2ccccc2)cc1OCc1ccccc1,174 to 176
13,CN(C)CC1(CO)C(O)C(O)C(O)CN1C (stereo unspecified),76
14,CC(C)(C)OC(=O)/C(=C/c1ccccc1)C(=O)c1ccccc1O,109 to 110
15,Nc1ccn(C2OC(CO)C(O)C2O[N+](=O)[O-])c(=O)n1 (stereo unspecified),151 to 153
16,C=C(C)Cc1c(C)c(NC(C)=O)cc(C)c1O,183 to 185
17,NP(N)(=O)OCCCCl,111 to 112
18,CC(C)(C)OC(=O)N1CCC(ON=C(c2ccccc2)c2cc3ccncc3[nH]2)C1 (stereo unspecified),80 to 82
19,NCCc1c[nH]c2ccc(Cc3ccccc3)cc12,150 to 153
20,O=C1OC2(CCC2)C(O)=C1c1ccccc1,188 to 189
21,Cn1c(=O)c(-c2ccc(Cl)cc2Cl)cc2c3cc(-c4coc(N)n4)ccc3n(C)c21,295 to 297

# The next lines start with the values.
row,melting point [°C],SMILES
1,234 to 235,Cc1cc(C)c2nc(C)c(NC(=O)Nc3ccc(F)cc3F)c(-c3ccccc3Cl)c2c1
2,146 to 147,COc1ccc(CNC(=O)C(=O)NCCc2cccs2)c(OC)c1
3,165 to 167,Cc1ccc(C)c(-c2cn(C)cc(-c3cccc(C(F)(F)F)c3)c2=O)c1
4,151 to 153,COc1cccc(/C(=C/C=C/C(=O)O)c2cccc(F)c2)c1
5,208 to 210,COc1ccc(CNc2ccc(C(=O)O)cc2)cc1
6,189 to 190,COc1ccc2c3c(cn2S(=O)(=O)c2ccc(C)cc2)CC(NC(=O)C(F)(F)F)C(=O)c13 (stereo unspecified)
7,178 to 181,CNC(=O)C[C@@H](c1ccccc1)c1c[nH]c2cccc(OC)c12
8,203,Clc1cccc(C(c2ccnc3ccccc23)n2cnnc2)c1 (stereo unspecified)
9,63 to 65,CCOC(=O)c1ccc(NCCCCc2cccs2)cc1
10,180,O=C1c2cccc(NC(=S)Nc3ncccc3Br)c2C2CCCCN12 (stereo unspecified)
11,165,CC(c1ccc2[nH]c(C(F)(F)F)nc2c1)n1ccnc1 (stereo unspecified)
12,166 to 169,Cn1nc(-c2ccc(S(C)(=O)=O)cc2)c(-c2ccc(F)cc2)c1C(F)(F)F
13,164 to 166,CC1(C)Cc2ccc(C#N)cc2N(C(=O)Nc2cccnc2)C1
14,263 to 266,COc1ccc2oc3ccc([N+](=O)[O-])cc3c2c1C(=O)Nc1cccnc1
15,63 to 64,CCCCc1c(/C=C/C(=O)OC)cc(OC)c2ccccc12
16,158 to 161,CC(=O)c1cc(Cl)ccc1Nc1ccc(O)cc1
17,97 to 100,CC1(C)Cc2c(F)cccc2C(c2cnc3ccccc3c2)=N1

row,melting point [°C],SMILES
1,55 to 56,CC(C)(C)c1cc2c(s1)C(=O)N(c1cccc(Br)c1CO)C2
2,106 to 108,COc1nc(C)cnc1NS(=O)(=O)c1cccnc1-c1ccc(COCCO)cc1
3,121 to 124,COC(=O)c1snc(-c2cc(OC)c(Cl)cc2F)c1N
4,222 to 226,N#Cc1ccccc1-c1cccc(-n2cnc3cc(-c4cnco4)ccc32)c1
5,210 to 212,COc1ccc(-c2coc3cc(O)ccc3c2=O)c(O)c1
6,75 to 78.5,O=C(On1nnc2ccccc21)c1ccccc1
7,177 to 179,COC(=O)c1c(C)nn2c(-c3cccc(C(F)(F)F)c3)ccnc12
8,53 to 54,CC(Oc1ccnc2cc(Cl)ccc12)c1ccccc1F (stereo unspecified)
9,246 to 248,C#Cc1cc2cn[nH]c2c(C(=O)NC2(C3CC3)CC2)c1NC(=O)c1cc(C(F)(F)F)nn1-c1ncccc1Cl
10,169 to 171,CC(O)c1cccc(Nc2ccccc2C(=O)O)c1Cl (stereo unspecified)
11,208 to 210,CC1c2ccccc2CN1NC(=O)c1ccc(Cl)c(S(N)(=O)=O)c1 (stereo unspecified)
12,152 to 153,CCOc1cc(NC(=S)NS(=O)(=O)c2ccc(C)cc2)ccn1
13,269 to 271,O=C1NCc2cccnc2N1c1ccccc1
14,156 to 158,COc1ccc(C(=O)Nc2ccccc2)cc1NC(=S)Nc1ccc(C)cc1
15,201 to 202,O=C(Nc1ccc(Cl)cn1)N[C@@H]1C[C@@H]1c1cccc([N+](=O)[O-])c1 (racemic)
16,235 to 239,Cc1nc(Nc2ccccc2)sc1C(=O)c1ccc(N)c([N+](=O)[O-])c1
17,250,CCOc1ccc2c(c1)n(C1CCCCC1)c(=O)n2Cc1ccc(NC(=O)N(C)C)cc1OC
